Results taken from patent US10865188B2, “Dibenzo azepine compounds and their use in the treatment of otic diseases and disorders” (Pipeline Therapeutics, Inc., priority 2015, dated 2020).
pEC50, pIC50: −log10 of the molar value. Read-outs that look alike come from different tables or passages of the source.

Experiments:
Atoh1 = assay: Human neural stem cell assay, Atoh1 gene expression (real-time PCR); format: cell-based; details: human neural stem cells, 7 point CRC, read-out: hNSC Atoh1 EC50
Protocol: (§1) Neural stem cells (NSC) were derived from embryonic stem cells using a published protocol (Yuan et al., Mar. 2, 2011, PLoS ONE, 6(3):e17540). Cells were sorted and characterized at passage 3 and were expanded. Cells were then frozen at passage 5. Cells were maintained in NSC media (DMEM/F12, N2 (1×), B27(1×) (Invitrogen), and Pen/Strep (1×) (Life Technologies) with 20 ng/ml bFGF (BD Bioscience/Corning)). On day 1, cells were plated in 96 well plates that have been previously coated with poly-ornithin and laminin, 60,000 cells/well in 100 μl of media. On day 2, spent media was removed, and 180 μl of fresh media was added to the cells. Later that same day (day 2), cells were treated with 20 μl of NSC media containing test compounds (7 point CRC). On day 3, spent media was removed and 140 μl of RLT/bME was added to the cells. RNA was extracted using the QiaCube (Qiagen®, Germantown, Md., USA) using the total RNA extraction+DNAse protocol. RNA was then reverse-transcribed to cDNA using iScript (Bio-Rad, Hercules, Calif., USA). cDNA was then used for real-time PCR analysis using iTaq Sybergreen (BioRad). Expression of Atoh1, Hes5, Hes1, Myosin7a genes was evaluated using CFX96 or CFX384 (Bio-Rad). HPRT1 was used as a reference gene. Analysis was done using Microsoft® Excel® and CBIS (ChemInnovation Software, Inc., San Diego, Calif., USA). […]

[1] = Guinea pig PK after transtympanic delivery (perilymph and cochlea, LC/MS/MS); format: in vivo; details: for concentration at 1 day / concentration at 7 day / concentration at 14 day / concentration at 28 day / concentration at 42 day / concentration at 56 day: male, Hartley, other: transtympanic, 30 μL, 30 μL transtympanic; for concentration at 1 day: Day 1, LLOQ = 0.08 μM; for concentration at 7 day: Day 7, LLOQ = 0.08 μM; for concentration at 14 day: Day 14, LLOQ = 0.08 μM; for concentration at 28 day: Day 28, LLOQ = 0.08 μM; for concentration at 42 day: Day 42, LLOQ = 0.08 μM; for concentration at 56 day: Day 56, LLOQ = 0.08 μM
Excerpt: (§2) Male Hartley guinea pigs (300-350 g) were anesthetized with ketamine and xylazine. Thirty microliters of an aqueous pharmaceutical composition of the instant embodiments was delivered transtympanically to deposit the drug to the round window membrane. Delivery was unilateral. The animals were placed in a warm chamber in a lateral recumbent position keeping the dosed ear side up until they recover from anesthesia.
At various timepoints after administration, the animals were euthanized by CO2 inhalation. Blood and CSF were collected and stored at −80° C. The animals were decapitated, the temporal bones removed and the bulla opened to expose the otic capsule. Ipsilateral and contralateral perilymph were collected from the apex using a microcapillary tube. The ipsilateral cochlea was removed from the otic capsule and stored at −80° C. All tissues collected were analyzed using LC/MS/MS for test compound concentration as follows. Analytical standards were prepared by spiking known concentrations of the test compound stock solutions into matrices such as plasma or artificial CSF. Fixed amounts of tissues collected and spiked standards were precipitated with acetonitrile containing buspirone as an internal standard. The precipitated samples were centrifuged at 4000 g for 10 minutes at 4° C. The supernatants were analyzed using LC-MS/MS. The LC-MS/MS system was set up using the AB Sciex 4000 Qtrap (AB Sciex, Framingham, Mass.) equipped with Agilent 1200 series HPLC and CTC PAL Autosampler (Agilent Technologies, Santa Clara, Calif.).
Liquid compositions described herein were evaluated using the method described in Part E of the Biological Function section provided above. The liquid compositions prepared as described in Example 5(a)-5(d) were each drawn into a 1 mL syringe. Using the filled 1 mL syringe, the liquid composition was back-filled at 5° C. into a 100 μL Hamilton syringe adapted with 28 gauge needle. The Hamilton syringe was then allowed to warm to room temperature.
as §2, with “the above liquid” for “an aqueous pharmaceutical”, “were” for “of the instant embodiments was”, “The delivery” for “Delivery”, “recovered” for “recover”
At various timepoints after administration, the animals were euthanized by CO2 inhalation. Blood and cerebrospinal fluid were collected and stored at −80° C. The animals were decapitated, the temporal bones removed and the bulla were opened to expose the otic capsule. Ipsilateral and contralateral perilymph were collected from the apex using a microcapillary tube. The ipsilateral cochlea was removed from the otic capsule and was stored at −80° C. All tissues collected were analyzed using LC/MS/MS as described in Part E of the Biological Function section above.
The concentrations of Compound I and Compound II were measured using LC/MS/MS in both the perilymph fluid and the cochlea tissue after a transtympanic injection of an instant formulation of either the crystalline form or the amorphous form at various time points. […] Concentration of the instant compounds in the perilymph and/or cochlea tissue was above the human NSC EC50 for Atoh1, an indicator that the subject compounds may be efficacious in hair cell regeneration and hearing restoration in human. […] Table 3 below lists the results for the studies using aqueous formulations of crystalline Compound I while Table 4 below lists those for aqueous formulations of crystalline Compound II. The results for aqueous formulations of crystalline Compound I are also graphically shown in FIG. 5A and FIG. 5B while the results for aqueous formulations of crystalline Compound II are graphically shown in FIG. 6A and FIG. 6B.

mice = assay: Auditory brainstem response (ABR) hearing threshold; format: in vivo; details: formulations of Examples 3(c) and 3(d) (2% w/v crystalline, poloxamer 407)
Protocol: Surgery was performed on naïve mice or mice with noise or pharmacologically-damaged ears. The animals were anesthetized with isoflurane and an 8 mm retroauricular incision was made to the lower caudal edge of the pinna. The skin was retracted and the fatty tissue was blunt dissected away from where the facial nerve and muscle come together. The muscle was retracted to reveal an area in the tympanic bulla where the bone was thin. A 30 g needle was used to drill a hole in the exposed thin portion of the otic bulla. A Hamilton syringe equipped with a 32 g blunt needle was inserted into the opening of the otic bulla. The drug formulation was delivered by injection and the needle removed. Wound closure was made with tissue glue.
Naïve mice or mice at various times after either noise or pharmacological deafening were anesthetized with ketamine/xylazine/acepromazine and the auditory brainstem response was determined in both ears using a Tucker Davis (Alachua, Fla.) RZ6 apparatus. The mice were exposed to clicks or pure tones of 4, 8, 16, 24 and 32 kHz at 90-10 dB in 10 dB descending steps and the hearing threshold was determined.

HES5 = assay: Human neural stem cell assay, Hes5 gene expression (real-time PCR); format: cell-based; details: human neural stem cells, 7 point CRC, read-out: hNSC HES5 IC50
Protocol: as §1

[2] = cochlea, Amorphous form (Example 5(d)), read-out: Cochlea Average concentration
[3] = cochlea, Crystalline form (Example 5(c)), read-out: Cochlea Average concentration
[4] = perilymph, Amorphous form (Example 5(d)), read-out: perilymph Average concentration
[5] = perilymph, Crystalline form (Example 5(c)), read-out: Perilymph Average concentration

- pEC50 (Atoh1): 7.64
- concentration at 1 day [1, 2]: 829 µM
- concentration at 7 day [1, 2]: 18.1 µM
- concentration at 14 day [1, 2]: 0 µM
- concentration at 28 day [1, 2]: 0 µM
- concentration at 1 day [1, 3]: 5280 µM
- concentration at 7 day [1, 3]: 46.1 µM
- concentration at 14 day [1, 3]: 222 µM
- concentration at 28 day [1, 3]: 7.6 µM
- concentration at 42 day [1, 3]: 0.6 µM
- concentration at 56 day [1, 3]: 0 nM
- concentration at 1 day [1, 4]: 159 µM
- concentration at 7 day [1, 4]: 178 µM
- concentration at 14 day [1, 4]: 0 µM
- concentration at 28 day [1, 4]: 0 µM
- concentration at 1 day [1, 5]: 502 µM
- concentration at 7 day [1, 5]: 26 µM
- concentration at 14 day [1, 5]: 26 µM
- concentration at 28 day [1, 5]: 2.2 µM
- concentration at 42 day [1, 5]: 0.3 µM
- concentration at 56 day [1, 5]: 0 nM
- exposure to the inner ear, crystalline formulation versus respective amorphous formulation ([1]; transtympanic, formulations of Example 5(a)-5(d)): longer exposure
- pIC50 (HES5): 7.64
Structure (SMILES): CN1C(=O)[C@@H](NC(=O)[C@](C)(F)C(=O)NCC(F)(F)C(F)(F)F)c2ccccc2-c2ccccc21 [Compound II, (2R)-2-fluoro-2-methyl-N—[(S)-5-methyl-6-oxo-6,7-dihydro-5H-dibenzo[b,d]azepin-7-yl]-N′-(2,2,3,3,3-pentafluoropropyl)malonamide]
- concentration in the perilymph and the cochlea compared with the human NSC EC50 for Atoh1 ([1]; dosed as the amorphous form, transtympanic): above the human NSC EC50 for Atoh1 at 1 day and 7 days
- concentration in the perilymph and the cochlea compared with the human NSC EC50 for Atoh1 ([1]; dosed as the crystalline form, transtympanic): above the human NSC EC50 Atoh1 from day 1 to day 42
- ABR Threshold Improvement (mice; 16 kHz): 8 dB
- ABR Threshold Improvement (mice; 24 kHz): 11 dB
- ABR Threshold Improvement (mice; 32 kHz): 7 dB
